Data on two compounds can be found in ChEMBL document CHEMBL1201862, “PubChem BioAssay data set” (2004).

For orientation: EC50 means the concentration at which the effect is half-maximal. As a reminder, the AC50 is the midpoint of the concentration-response curve, whichever way the signal moves.

In data set [1] the test system is Streptococcus sp. 'group A'. The data set can be described thus: Streptococcus pyogenes SK(-)GAS viability under kanamycin – luminescence, BacTiterGlo, confirmation, counter-screen for streptokinase expression inhibitor project, dose response (AID 1900). Type of data set: functional, organism-based. In general terms: A counterscreen serves to expose hits that act by an unwanted route or on another target.

Data set [2] addresses T1, Streptokinase A (Streptococcus pyogenes serotype M1, UniProt P10520).
T1 sequence (P10520 whole entry): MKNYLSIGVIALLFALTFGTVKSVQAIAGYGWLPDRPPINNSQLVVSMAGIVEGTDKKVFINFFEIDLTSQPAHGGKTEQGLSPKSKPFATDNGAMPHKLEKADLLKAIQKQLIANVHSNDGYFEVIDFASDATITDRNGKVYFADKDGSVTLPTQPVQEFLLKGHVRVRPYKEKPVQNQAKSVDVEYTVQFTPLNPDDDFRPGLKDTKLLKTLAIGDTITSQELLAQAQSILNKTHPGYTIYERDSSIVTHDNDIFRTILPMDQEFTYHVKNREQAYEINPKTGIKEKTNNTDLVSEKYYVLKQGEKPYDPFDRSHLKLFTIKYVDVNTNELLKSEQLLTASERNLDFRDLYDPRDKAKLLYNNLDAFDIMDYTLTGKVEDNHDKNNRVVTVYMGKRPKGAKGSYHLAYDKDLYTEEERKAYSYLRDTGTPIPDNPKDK
Description: viability-normalized secreted streptokinase activity reduction – plasminogen activation absorbance, OD405, dose response (AID 1914).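 Further: secreted streptokinase activity via plasminogen activation per viability signal from cell pellet.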 It is filed as functional, Streptococcus pyogenes M1 GAS.

Data set [3] deals with T2, G-protein coupled receptor 55 (Homo sapiens, UniProt Q9Y2T6). The data set can be described thus: inhibition of LPI-stimulated GPR55 beta-arrestin translocation – imaging, U2OS, beta-arrestin-GFP, LPI agonist, primary screen (AID 2013).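 Further: antagonist potency measured as reduced agonist-driven arrestin aggregation.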 Type of data set: functional.
T2 sequence (Q9Y2T6 whole entry): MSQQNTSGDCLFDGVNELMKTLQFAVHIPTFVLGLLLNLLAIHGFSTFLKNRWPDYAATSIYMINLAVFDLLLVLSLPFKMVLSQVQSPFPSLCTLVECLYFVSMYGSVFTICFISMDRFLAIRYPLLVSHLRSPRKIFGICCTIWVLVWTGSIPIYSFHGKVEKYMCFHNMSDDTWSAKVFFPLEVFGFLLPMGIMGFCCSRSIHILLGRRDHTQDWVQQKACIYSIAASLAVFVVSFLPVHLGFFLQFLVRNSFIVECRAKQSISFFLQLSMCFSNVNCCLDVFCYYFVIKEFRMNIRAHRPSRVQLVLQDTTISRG
Data set [4] addresses Peroxisome proliferator-activated receptor gamma/Nuclear receptor corepressor 2 (Homo sapiens, UniProt P37231+Q9Y618). The data set can be described thus: Counterscreen for NR2E3 inverse agonists: TR-FRET-based biochemical high throughput dose response assay to identify inverse agonists of the interaction between peroxisome proliferator-activated receptor gamma (PPARg) and nuclear receptor co-repressor 2 (NCOR2). Type of data set: functional.

The target in data set [5] is Photoreceptor-specific nuclear receptor (Homo sapiens, UniProt Q9Y5X4). Description: ligands suppressing NR2E3 nuclear receptor activity – biochemical, TR-FRET, dose response (AID 463256). It is filed as functional.
Chain of Photoreceptor-specific nuclear receptor (Q9Y5X4 whole entry): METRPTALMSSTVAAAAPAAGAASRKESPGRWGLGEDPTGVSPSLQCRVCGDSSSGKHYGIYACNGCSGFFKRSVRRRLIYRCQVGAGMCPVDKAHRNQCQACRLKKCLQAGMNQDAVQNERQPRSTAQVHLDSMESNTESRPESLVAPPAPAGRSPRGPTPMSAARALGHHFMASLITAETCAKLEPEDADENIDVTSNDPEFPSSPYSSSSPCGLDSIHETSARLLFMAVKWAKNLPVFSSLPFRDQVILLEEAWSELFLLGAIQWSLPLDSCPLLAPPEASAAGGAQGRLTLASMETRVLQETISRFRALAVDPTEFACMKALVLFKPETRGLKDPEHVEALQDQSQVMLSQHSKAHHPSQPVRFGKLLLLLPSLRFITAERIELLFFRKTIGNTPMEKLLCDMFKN
In data set [6] the test system is Streptococcus. The data set can be described thus: GAS UMAA2166 growth inhibition – luminescence, BacTiterGlo, counter-screen for streptokinase expression inhibitor project, dose response (AID 1915).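 Further: potency for reduction of bacterial viability or growth.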 It is filed as functional, organism-based.
Data set [7] has as its target T3, Cannabinoid receptor 1 (Homo sapiens, UniProt P21554). The data set can be described thus: SAR analysis of antagonists of the Cannabinoid Receptor 1 using an Image-Based Assay - Set 2. [Related pubchem assays (depositor defined):AID2013, AID2026]. Type of data set: functional.
The target in data set [8] is T4, G-protein coupled receptor 35 (Homo sapiens, UniProt Q9HC97). The data set can be described thus: SAR analysis of Agonists of the GPR35 Receptor using an Image-Based Assay - Set 2. [Related pubchem assays (depositor defined):AID2013, AID2026]. Type of data set: functional.
T4 sequence (Q9HC97 whole entry): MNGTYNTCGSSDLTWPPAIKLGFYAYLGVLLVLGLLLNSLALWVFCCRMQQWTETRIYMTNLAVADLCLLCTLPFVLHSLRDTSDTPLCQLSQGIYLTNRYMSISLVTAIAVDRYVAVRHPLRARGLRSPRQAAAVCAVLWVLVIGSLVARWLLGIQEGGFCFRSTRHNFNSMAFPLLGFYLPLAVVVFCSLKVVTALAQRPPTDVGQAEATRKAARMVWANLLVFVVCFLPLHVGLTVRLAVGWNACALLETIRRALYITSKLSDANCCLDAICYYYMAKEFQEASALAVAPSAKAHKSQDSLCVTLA
Data set [9] addresses T5, Cannabinoid receptor 2 (Homo sapiens, UniProt P34972). Description: SAR analysis of antagonists of the Cannabinoid Receptor 2 using an Image-Based Assay. [Related pubchem assays (depositor defined):AID2013, AID2026]. Type of data set: functional.
For data set [10], the target named is T3, Cannabinoid receptor 1. Description: SAR analysis of agonists of the Cannabinoid Receptor 1 using an Image-Based Assay - Set 2. [Related pubchem assays (depositor defined):AID2013, AID2026]. It is filed as functional.
In data set [11] the target is T4, G-protein coupled receptor 35. The data set can be described thus: SAR analysis of Antagonists of the GPR35 Receptor using an Image-Based Assay - Set 3. [Related pubchem assays (depositor defined):AID2013, AID2026]. It is filed as functional.
Data set [12] addresses T2, G-protein coupled receptor 55. Description: blockade of LPI-induced GPR55 arrestin translocation – imaging, U2OS, beta-arrestin-GFP, LPI agonist, set 2, SAR follow-up (AID 2820). Type of data set: functional.
For data set [13], the target named is T5, Cannabinoid receptor 2. The data set can be described thus: SAR analysis of agonists of the Cannabinoid Receptor 2 using an Image-Based Assay. [Related pubchem assays (depositor defined):AID2013, AID2026]. It is filed as functional.
Data set [14] deals with Cytochrome P450 2D6 (Homo sapiens, UniProt P10635).
Chain of Cytochrome P450 2D6 (P10635 whole entry): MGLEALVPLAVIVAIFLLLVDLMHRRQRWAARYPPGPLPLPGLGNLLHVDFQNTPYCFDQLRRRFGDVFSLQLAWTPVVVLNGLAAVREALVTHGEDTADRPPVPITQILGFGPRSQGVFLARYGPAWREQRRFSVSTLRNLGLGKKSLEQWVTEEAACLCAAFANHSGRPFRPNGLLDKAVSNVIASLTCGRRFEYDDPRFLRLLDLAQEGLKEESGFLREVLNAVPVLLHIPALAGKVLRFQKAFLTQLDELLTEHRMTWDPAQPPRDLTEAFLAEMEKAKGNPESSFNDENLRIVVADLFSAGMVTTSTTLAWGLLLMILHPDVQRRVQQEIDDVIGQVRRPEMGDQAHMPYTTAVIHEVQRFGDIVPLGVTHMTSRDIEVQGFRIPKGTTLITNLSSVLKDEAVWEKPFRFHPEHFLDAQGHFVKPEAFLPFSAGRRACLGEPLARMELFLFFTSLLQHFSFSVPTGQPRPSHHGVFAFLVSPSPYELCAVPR
Data set [15] concerns the target Cytochrome P450 3A4 (Homo sapiens, UniProt P08684).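 Further: CYP3A4 tested as one member of a cytochrome P450 panel screen.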
The target of data set [16] is Sphingosine 1-phosphate receptor 1 (Homo sapiens, UniProt P21453). Description: Fluorescence-based counterscreen assay for S1P4 agonists: Cell-based dose response high throughput screening assay to identify agonists of the Sphingosine 1-Phosphate Receptor 1 (S1P1). [Related pubchem assays (depositor defined):AID1509, AID1523, AID1801, AID463107, AID463118, AID463119, AID463122, AID463123, AID463129, AID463225, AID504400, AID504460]. Type of data set: functional.
Chain of Sphingosine 1-phosphate receptor 1 (P21453 whole entry): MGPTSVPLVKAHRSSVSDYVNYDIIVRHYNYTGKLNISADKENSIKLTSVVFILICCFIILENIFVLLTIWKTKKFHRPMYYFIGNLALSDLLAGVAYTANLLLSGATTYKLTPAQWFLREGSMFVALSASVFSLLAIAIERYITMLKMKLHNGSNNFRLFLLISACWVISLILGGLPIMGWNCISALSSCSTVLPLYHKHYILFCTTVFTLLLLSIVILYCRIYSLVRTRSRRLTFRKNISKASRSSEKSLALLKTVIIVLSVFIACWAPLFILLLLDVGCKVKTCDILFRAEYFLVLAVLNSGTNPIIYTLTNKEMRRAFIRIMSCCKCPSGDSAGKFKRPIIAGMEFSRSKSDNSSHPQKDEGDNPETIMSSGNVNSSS

Data set [17] deals with T6, Sphingosine 1-phosphate receptor 4 (Homo sapiens, UniProt O95977).
T6 sequence (O95977 whole entry): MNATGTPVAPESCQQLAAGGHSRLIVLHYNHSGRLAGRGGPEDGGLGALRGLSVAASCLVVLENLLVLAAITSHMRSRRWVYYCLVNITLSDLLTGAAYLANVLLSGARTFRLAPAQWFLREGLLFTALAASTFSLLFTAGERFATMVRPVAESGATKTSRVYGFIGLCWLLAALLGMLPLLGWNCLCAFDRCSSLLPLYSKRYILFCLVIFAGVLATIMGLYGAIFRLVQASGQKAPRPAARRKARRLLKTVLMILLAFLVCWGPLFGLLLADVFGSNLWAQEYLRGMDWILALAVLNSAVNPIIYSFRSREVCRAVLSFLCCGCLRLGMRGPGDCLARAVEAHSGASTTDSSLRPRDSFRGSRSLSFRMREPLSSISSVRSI
Description: Fluorescence dose response cell-based high throughput screening assay for agonists of the Sphingosine 1-Phosphate Receptor 4 (S1P4). [Related pubchem assays: 1509 (Primary screen.), 1523 (Confirmation screen in triplicates.)]. Type of data set: functional.

Data set [18] can be described thus: viability of PTEN-deleted HCT116 cells – cell-based, HCT116 PTEN knockout, dose response (AID 1047).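 Further: HCT116 colon tumor cells with PTEN knocked out; cells exposed to compound for 60 hours before readout; potency for loss of cell viability measured by luminescence.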 Type of data set: functional.
The nature of data set [19]: viability of HCT116 lacking mutant beta-catenin – cell-based, human colon tumor, dose response (AID 1045).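 Further: HCT116 colon tumor cells with beta catenin knocked out; cells exposed to compound for 60 hours.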 Type of data set: functional.
Data set [20] is described as follows: HEK-293T viability loss after treatment – luminescence, T-cell screen hits, cytotoxicity control for TCR NF-kB inhibitor project, dose response (AID 489026).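 Further: cells exposed to compound about 14 hours before the viability readout.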 Type of data set: functional, cell-based.
The target in data set [21] is Protein Wnt-3a (Mus musculus, UniProt P27467). Description: antagonism of Wnt3a pathway luciferase reporter – Wnt-LIGHT cells, luminescence, selectivity assay for Gli-SUFU antagonist project, dose response (AID 651570).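 Further: Wnt-LIGHT reporter cells stimulated with conditioned medium from Wnt3a-producing cells.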 It is filed as functional. To be noted: read-out: IC50_Mean. A general note: A reporter such as luciferase makes a cellular process visible.
Chain of Protein Wnt-3a (P27467 whole entry): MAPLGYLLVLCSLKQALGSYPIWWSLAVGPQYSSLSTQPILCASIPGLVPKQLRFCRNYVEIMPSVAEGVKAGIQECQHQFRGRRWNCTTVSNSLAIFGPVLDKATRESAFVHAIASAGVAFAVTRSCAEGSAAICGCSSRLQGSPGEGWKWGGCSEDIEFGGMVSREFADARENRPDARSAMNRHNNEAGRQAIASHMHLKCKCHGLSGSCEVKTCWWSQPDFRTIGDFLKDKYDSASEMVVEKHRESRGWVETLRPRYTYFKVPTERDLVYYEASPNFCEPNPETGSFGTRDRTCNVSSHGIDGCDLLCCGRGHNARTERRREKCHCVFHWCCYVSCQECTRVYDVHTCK

Calls of active or inactive are those of the source.

T3 sequence (P21554 whole entry): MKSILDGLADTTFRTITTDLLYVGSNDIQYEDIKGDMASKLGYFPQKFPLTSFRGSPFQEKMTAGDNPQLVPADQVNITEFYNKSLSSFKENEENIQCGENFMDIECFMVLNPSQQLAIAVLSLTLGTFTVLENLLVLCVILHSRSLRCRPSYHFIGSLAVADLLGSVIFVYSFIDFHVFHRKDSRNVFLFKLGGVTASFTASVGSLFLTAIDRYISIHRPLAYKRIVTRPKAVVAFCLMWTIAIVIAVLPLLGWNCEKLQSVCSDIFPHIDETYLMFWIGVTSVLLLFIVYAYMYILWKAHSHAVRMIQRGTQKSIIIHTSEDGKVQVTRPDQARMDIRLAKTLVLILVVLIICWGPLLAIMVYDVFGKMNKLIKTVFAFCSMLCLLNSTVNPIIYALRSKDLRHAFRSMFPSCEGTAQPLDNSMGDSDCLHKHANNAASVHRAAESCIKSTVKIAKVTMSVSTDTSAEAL
T5 sequence (P34972 whole entry): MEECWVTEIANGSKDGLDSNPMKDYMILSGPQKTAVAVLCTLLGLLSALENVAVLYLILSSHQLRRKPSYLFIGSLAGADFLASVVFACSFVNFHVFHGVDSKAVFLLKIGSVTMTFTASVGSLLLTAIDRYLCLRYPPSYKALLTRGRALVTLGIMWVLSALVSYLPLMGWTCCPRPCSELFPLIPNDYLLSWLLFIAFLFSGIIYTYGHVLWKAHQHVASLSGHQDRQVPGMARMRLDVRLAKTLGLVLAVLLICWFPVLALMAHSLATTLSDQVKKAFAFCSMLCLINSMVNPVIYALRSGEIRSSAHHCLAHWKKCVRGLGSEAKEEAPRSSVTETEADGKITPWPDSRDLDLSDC
Chain of Cytochrome P450 3A4 (P08684 whole entry): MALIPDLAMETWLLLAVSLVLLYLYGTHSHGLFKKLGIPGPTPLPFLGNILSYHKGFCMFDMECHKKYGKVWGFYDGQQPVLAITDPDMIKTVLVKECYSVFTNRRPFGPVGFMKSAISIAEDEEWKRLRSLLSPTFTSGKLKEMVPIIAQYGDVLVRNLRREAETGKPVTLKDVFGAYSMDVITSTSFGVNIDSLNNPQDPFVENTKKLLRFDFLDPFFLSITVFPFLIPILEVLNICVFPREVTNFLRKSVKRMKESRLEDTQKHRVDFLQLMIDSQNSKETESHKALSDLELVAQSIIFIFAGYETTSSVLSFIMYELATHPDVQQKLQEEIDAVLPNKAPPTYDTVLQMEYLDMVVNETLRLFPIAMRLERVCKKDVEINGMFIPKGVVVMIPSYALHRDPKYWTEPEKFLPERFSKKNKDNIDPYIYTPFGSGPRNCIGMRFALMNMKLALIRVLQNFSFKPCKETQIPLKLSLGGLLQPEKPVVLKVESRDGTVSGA

For the compound `Cc1nnc(-c2cccc(Br)c2)c2cn(-c3ccc(Br)cc3)nc12`, the EC50 in [1] is 3.53 µM (active); in data set [2], 19.2 µM (active); in [6] it was 28.4 µM (active); in [8], > 32 µM (inactive); in [10] it was > 32 µM (inactive); in data set [13] it was > 32 µM (inactive). Moreover, the IC50 was 0.915 µM (active) in data set [3]; 14.5 µM (not active) in data set [4]; 18.8 µM (not active) in [5]; 13.9 µM (inactive) in data set [7]; > 32 µM (inactive) in data set [9]; > 32 µM (inactive) in data set [11]. For the same compound, in data set [12], the IC50 is 0.893 µM (active). The figures for the AC50 in [14] and in data set [15] were 12.6 µM (inconclusive) and “inconclusive”, respectively.

For `COc1ccc(-c2c(C#N)c(N)nc3c2CCc2ccccc2-3)cc1OC`, the EC50 was > 49.8 µM (inactive) in data set [16], 43.6 µM (not active) in data set [17], 5.19 µM (active) in data set [18] and 5.59 µM (active) in [19]. In addition, the IC50 is 38.1 µM (inactive) in data set [20] and 17.9 µM (active) in data set [21].
